Measurements as given in ChEMBL document CHEMBL3352426, “A natural phenylpropionate derivative from Mirabilis himalaica inhibits cell proliferation and induces apoptosis in HepG2 cells” (Bioorg Med Chem Lett, 2014).
Values after ≈ are worked out from the molar mass of the structure shown. Active and inactive are the calls of the source. No cut-off for these calls is given here.

Columns and labels:
HepG2 [1] = assay: Induction of apoptosis in human HepG2 cells assessed as increase in Bax level after 48 hrs by Western blot analysis; assay type: functional, cell-based
HepG2 [2] = assay: Induction of alteration in mitochondrial membrane potential in human HepG2 cells assessed as decrease Rh-123 fluorescence at 20 ug/ml after 48 hrs by flow cytometric analysis; assay type: functional; conditions: HepG2, 48 h
HepG2 [3] = assay: Cytotoxicity against human HepG2 cells assessed as inhibition of cell proliferation at 2.5 to 40 ug/ml by CCK8 assay; assay type: functional, cell-based; conditions: TDE = time-dependent effect
HepG2 [4] = assay: Antitumor activity against human HepG2 cells injected in ip dosed mouse assessed as reduction in tumor size treated for 13 days; assay type: functional
HepG2 [5] = assay: Induction of alteration in mitochondrial membrane potential in human HepG2 cells assessed as decrease Rh-123 fluorescence at 10 ug/ml after 48 hrs by flow cytometric analysis; assay type: functional; conditions: HepG2, 48 h
HepG2 [6] = assay: Cytotoxicity against human HepG2 cells assessed as decrease in positive staining after 1 hr by BrdU immunofluorescence assay relative to untreated control; assay type: functional
HepG2 [7] = assay: Effect on CDK2 expression in human HepG2 cells after 48 hrs by Western blot analysis; assay type: functional, cell-based
HepG2 [8] = assay: Induction of alteration in mitochondrial membrane potential in human HepG2 cells assessed as decrease Rh-123 fluorescence after 48 hrs by flow cytometric analysis; assay type: functional, cell-based
HepG2 [9] = assay: Effect on Cyclin D1 expression in human HepG2 cells after 48 hrs by Western blot analysis; assay type: functional, cell-based
HepG2 [10] = assay: Induction of apoptosis in human HepG2 cells assessed as assessed as accumulation at G2/M phase after 48 hrs by propidium iodide staining-based flow cytometric analysis (reference value: 10.4%); assay type: functional
HepG2 [11] = assay: Induction of apoptosis in human HepG2 cells transfected with p53 shRNA assessed as apoptotic cell accumulation after 48 hrs by annexin V/propidium iodide staining-based flow cytometric analysis; assay type: functional
HepG2 [12] = assay: Induction of apoptosis in human HepG2 cells assessed as assessed as increase in apoptotic cells after 48 hrs by annexin V/propidium iodide staining-based flow cytometric analysis; assay type: functional
HepG2 [13] = assay: Induction of alteration in mitochondrial membrane potential in human HepG2 cells assessed as decrease Rh-123 fluorescence at 5 ug/ml after 48 hrs by flow cytometric analysis; assay type: functional; conditions: HepG2, 48 h
HepG2 [14] = assay: Cytotoxicity against human HepG2 cells assessed as inhibition of cell proliferation after 48 hrs by CCK8 assay; assay type: functional, cell-based
HepG2 [15] = assay: Induction of apoptosis in human HepG2 cells transfected with pBabe-puro with Bcl2 assessed as apoptotic cell accumulation after 48 hrs by annexin V/propidium iodide staining-based flow cytometric analysis; assay type: functional
HepG2 [16] = assay: Cytotoxicity against human HepG2 cells assessed as inhibition of cell proliferation at 20 ug/ml by MTT assay; assay type: functional
HepG2 [17] = assay: Effect on CDK6 expression in human HepG2 cells after 48 hrs by Western blot analysis; assay type: functional, cell-based
HepG2 [18] = assay: Induction of apoptosis in human HepG2 cells assessed as decrease in Bcl2 level after 48 hrs by Western blot analysis; assay type: functional, cell-based
HepG2 [19] = assay: Induction of apoptosis in human HepG2 cells assessed as assessed as accumulation at G0/G1 phase after 48 hrs by propidium iodide staining-based flow cytometric analysis (reference value: 70.8%); assay type: functional
Mus musculus = assay: Toxicity in human HepG2 cells injected in ip dosed mouse assessed as change in body weight; assay type: organism-based; conditions: in vivo
HepG2 [20] = assay: Induction of apoptosis in human HepG2 cells assessed as caspase 3 activation after 48 hrs by Western blot analysis; assay type: functional, cell-based
HepG2 [21] = assay: Induction of apoptosis in human HepG2 cells assessed as assessed as accumulation at S phase after 48 hrs by propidium iodide staining-based flow cytometric analysis (reference value: 18.9%); assay type: functional
HepG2 [22] = assay: Induction of apoptosis in human HepG2 cells transfected with pBabe-puro assessed as apoptotic cell accumulation after 48 hrs by annexin V/propidium iodide staining-based flow cytometric analysis; assay type: functional
HepG2 [23] = assay: Effect on CDK4 expression in human HepG2 cells after 48 hrs by Western blot analysis; assay type: functional, cell-based
HepG2 [24] = assay: Increase in p21 expression in human HepG2 cells after 48 hrs by Western blot analysis; assay type: functional, cell-based
HepG2 [25] = assay: Increase in p53 expression in human HepG2 cells after 48 hrs by Western blot analysis; assay type: functional, cell-based
HepG2 [26] = assay: Effect on Cyclin A expression in human HepG2 cells after 48 hrs by Western blot analysis; assay type: functional, cell-based
[27] = Cytotoxicity against human L02 cells assessed as assessed as apoptotic cells after 48 hrs by annexin V/propidium iodide staining-based flow cytometric analysis; assay type: cell-based; conditions: l02, 48 h

## COc1cc(OC(=O)/C=C/c2ccc(O)cc2OC)ccc1O
HepG2 [1]
  Activity: Active
HepG2 [2]
  inhibition at 20 µg/mL: 84.9%
HepG2 [3]
  inhibition: tde
HepG2 [4]
  inhibition (INH): 50%
HepG2 [5]
  inhibition at 10 µg/mL: 69.5%
HepG2 [6]
  inhibition (INH): 40%
HepG2 [7]
  Activity: inactive
HepG2 [8]
  inhibition: Dose-dependent effect
HepG2 [9]
  Activity: inactive
HepG2 [10]
  Activity: 11.4%
HepG2 [11]
  Activity: 68.8%
HepG2 [12]
  Activity: 89.9%
HepG2 [13]
  inhibition at 5 µg/mL: 37.1%
HepG2 [14]
  inhibition: Dose-dependent effect
HepG2 [14]; HepG2, 48 h
  IC50: 15.1 µg/mL (≈ 47.8 µM)
HepG2 [15]
  Activity: 26.9%
HepG2 [16]
  inhibition at 20 µg/mL: 37%
HepG2 [17]
  Activity: inactive
HepG2 [18]
  inhibition: Active
HepG2 [19]
  Activity: 52.6%
Mus musculus
  Activity: Non-toxic
HepG2 [20]
  Activity: Active
HepG2 [21]
  Activity: 36%
HepG2 [22]
  Activity: 75.4%
HepG2 [23]
  Activity: inactive
HepG2 [24]
  Activity: Active
HepG2 [25]
  Activity: Active
HepG2 [26]
  Activity: inactive
[27]
  Activity: Non-toxic
